Results published in patent publication US9580390B2, “Indazole compounds as kinase inhibitors and method of treating cancer with same” (University Health Network, priority 2011, dated 2017).
Like-named read-outs stand apart in the source and are kept apart here.

Columns and labels:
[1] = tested on: ovarian cancer cells (PA-1); experiment: Cancer cell line growth inhibition (SRB assay); assay type: cell-based; settings: PA-1, read-out: Cancer Cell Line GI50 Range PA-1
Breast cancer cells = experiment: Cancer cell line growth inhibition (SRB assay); assay type: cell-based; settings: Homo sapiens; MDA-MB-468; read-out: Cancer Cell Line GI50 Range MDA-MB-468
human TTK = molecular target: T1, human TTK (Homo sapiens, UniProt P33981); experiment: TTK inhibition assay (indirect ELISA); assay type: biochemical; settings: read-out: TTK IC50 Range
T1 construct: amino terminal GST fusion of full length human TTK; purchased Invitrogen
T1 sequence (P33981 1-857): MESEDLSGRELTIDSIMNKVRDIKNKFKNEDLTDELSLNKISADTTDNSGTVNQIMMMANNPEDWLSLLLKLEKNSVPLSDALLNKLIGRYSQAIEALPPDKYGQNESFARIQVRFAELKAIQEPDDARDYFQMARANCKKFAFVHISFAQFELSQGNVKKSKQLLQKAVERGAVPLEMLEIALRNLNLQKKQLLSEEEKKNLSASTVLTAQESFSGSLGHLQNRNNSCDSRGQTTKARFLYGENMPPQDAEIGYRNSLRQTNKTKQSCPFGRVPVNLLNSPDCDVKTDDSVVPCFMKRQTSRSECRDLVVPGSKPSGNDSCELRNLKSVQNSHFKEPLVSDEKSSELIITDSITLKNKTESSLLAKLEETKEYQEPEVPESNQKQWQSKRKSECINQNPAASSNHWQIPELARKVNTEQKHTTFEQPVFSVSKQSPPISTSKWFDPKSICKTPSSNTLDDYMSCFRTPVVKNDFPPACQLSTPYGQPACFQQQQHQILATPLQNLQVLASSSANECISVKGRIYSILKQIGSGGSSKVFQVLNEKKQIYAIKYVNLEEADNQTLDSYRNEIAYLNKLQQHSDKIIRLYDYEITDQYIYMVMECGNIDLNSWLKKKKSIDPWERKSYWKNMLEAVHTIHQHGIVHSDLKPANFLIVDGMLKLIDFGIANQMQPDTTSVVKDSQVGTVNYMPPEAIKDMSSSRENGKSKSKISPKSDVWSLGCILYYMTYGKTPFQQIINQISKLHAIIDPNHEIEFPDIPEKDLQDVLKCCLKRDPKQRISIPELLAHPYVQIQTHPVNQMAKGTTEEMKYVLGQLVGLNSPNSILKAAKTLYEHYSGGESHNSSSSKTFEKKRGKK

[2] = tested on: colon cancer cells (HCT116); experiment: Cancer cell line growth inhibition (SRB assay); assay type: cell-based; settings: read-out: Cancer Cell Line GI50 Range HCT116
Procedure: Breast cancer cells (MDA-MB-231), colon cancer cells (HCT116) and ovarian cancer cells (PA-1) were seeded (1000 to 4000 in 80 μl per well depending on the cell growth rate) into 96 well plates 24 hours before compound overlay. Compounds were prepared as 10 mM stock solutions in 100% DMSO which were diluted with DMEM (Dulbecco's Modified Eagle's Medium) cell growth Medium (Invitrogen, Burlington, ON, Canada) containing 10% FBS (Fetal Bovine Serum) to concentrations ranging from 50 nM to 250 μM. Aliquots (20 μl) from each concentration were overlaid to 80 μl of the pre-seeded cells in the 96 well plates to make final concentrations of 10 nM to 50 μM. The cells were cultured for 5 days before the Sulforhodamine B assay (SRB) was performed to determine the compound's cell growth inhibition activity.
Sulforhodamine B (purchased from Sigma, Oakville, ON, Canada) is a water-soluble dye that binds to the basic amino acids of the cellular proteins. Thus, colorimetric measurement of the bound dye provides an estimate of the total protein mass that is related to the cell number. the cells are fixed in situ by gently aspirating off the culture media and adding 50 μl ice cold 10% Trichloroacetic Acid (TCA) per well and incubate at 4° C. for 30-60 min. The plates are washed with H2O five times and allowed to air dry for 5 min. Addition of 50 μl 0.4% (w/v) SRB solution in 1% (v/v) acetic acid to each well and incubation for 30 min at RT completes the staining reaction. Following staining, plates are washed four times with 1% acetic acid to remove unbound dye and then allowed to air dry for 5 min. The stain is solubilized with 100 μl of 10 mM Tris pH 10.5 per well. Absorbance is read at 570 nm.
The percentage (%) of relative growth inhibition was calculated by comparing to DMSO treated only cells (100%). GI50's were determined for compounds with cytotoxic activity. The GI50 was calculated using GraphPad PRISM software (GraphPad Software, Inc., San Diego, Calif., USA).

Compound | GI50 ([1]; Homo sapiens) | GI50 (Breast cancer cells) | IC50 (human TTK) | GI50 ([2]; Homo sapiens, HCT-116) | GI50 [1] | GI50 ([2]; HCT116)
CCC(CC)(CNC(=O)c1ccc2[nH]nc(-c3ccc(N4CCN(C)CC4)cc3)c2c1)c1ccccc1 [Example A441, N-(2-ethyl-2-phenylbutyl)-3-(4-(4-methylpiperazin-1-yl)phenyl)-1H-indazole-5-carboxamide] | 100 to 500 nM | 100 to 500 nM | < 100 nM | 100 to 500 nM | – | –
CCC(CC)(CNC(=O)c1ccc2[nH]nc(-c3ccc(OC4CCN(C[C@@H](C)O)CC4)cc3)c2c1)c1ccccc1 [Example A443, (R)-N-(2-ethyl-2-phenylbutyl)-3-(4-((1-(2-hydroxypropyl)piperidin-4-yl)oxy)phenyl)-1H-indazole-5-carboxamide] | 100 to 500 nM | > 500 nM | < 100 nM | 100 to 500 nM | – | –
CN1CCC(Oc2ccc(-c3n[nH]c4ccc(C(=O)NC(c5ccccn5)C(C)(C)C)cc34)cc2)CC1 (stereo not shown) [Example A388] | 100 to 500 nM | > 500 nM | < 100 nM | 100 to 500 nM | – | –
O=C(NCC1(N2CCOCC2)CCOCC1)c1ccc2[nH]nc(-c3ccc(N4[C@@H]5CC[C@H]4C[C@@H](O)C5)cc3)c2c1 [Example A493, 3-(4-((1R,3R,5S)-3-hydroxy-8-azabicyclo[3.2.1]octan-8-yl)phenyl)-N-((4-morpholinotetrahydro-2H-pyran-4-yl)methyl)-1H-indazoIe-5-carboxamide] | 100 to 500 nM | > 500 nM | < 100 nM | 100 to 500 nM | – | –
O=C(NCC1(c2ccccc2)CCOCC1)c1ccc2[nH]nc(-c3ccc(N4CC(N5CCOCC5)C4)cc3)c2c1 [Example A499, 3-(4-(3-morpholinoazetidin-1-yl)phenyl)-N-((4-phenyltetrahydro-2H-pyran-4-yl)methyl)-1H-indazole-5-carboxamide] | 100 to 500 nM | 100 to 500 nM | < 100 nM | 100 to 500 nM | – | –
O=C(NCC1(N2CCOCC2)CCCOC1)c1ccc2[nH]nc(-c3ccc(N4C5CCC4CC(O)C5)cc3)c2c1 [Example A495, 3-(4-((1R,3R.5S)-3-hydroxy-8-azabicyclo[3.2.1]octan-8-yl)phenyl)-N-((3-morpholinotetrahydro-2H-pyran-3-yl)methyl)-1H-indazole-5-carboxamide] | < 100 nM | 100 to 500 nM | < 100 nM | 100 to 500 nM | – | –
O=C(NCC1(CN2CCOCC2)CCCCC1)c1ccc2[nH]nc(-c3ccc(N4[C@@H]5CC[C@H]4COC5)cc3)c2c1 [Example A510, 3-(4-((1R,5S)-3-oxa-8-azabicyclo[3.2.1]octan-8-yl)phenyl)-N-((1-(morpholinomethyl)cyclohexyl)methyl)-1H-indazole-5-carboxamide] | 100 to 500 nM | 100 to 500 nM | < 100 nM | 100 to 500 nM | – | –
O=C(NCC1(N2CCOCC2)CCCCC1)c1ccc2[nH]nc(-c3ccc(O[C@H]4C[C@H]5CC[C@@H](C4)N5C4COC4)cc3)c2c1 [Example A507, N-((1-morpholinocyclohexyl)methyl)-3-(4-(((1R,3R,5S)-8-(oxetan-3-yl)-8-azabicyclo[3.2.1]octan-3-yl)oxy)phenyl)-1H-indazole-5-carboxamide] | 100 to 500 nM | 100 to 500 nM | < 100 nM | 100 to 500 nM | – | –
CCC(CC)C(NC(=O)c1ccc2[nH]nc(-c3ccc(OC4CCN(C5COC5)CC4)cc3)c2c1)c1ccccn1 (stereo not shown) [Example A292, N-(2-ethyl-1-(pyridin-2-yl)butyl)-3-(4-((1-(oxetan-3-yl)piperidin-4-yl)oxy)phenyl)-1H-indazole-5-carboxamide] | < 100 nM | < 100 nM | < 100 nM | < 100 nM | – | –
CC(C)C[C@H](NC(=O)c1ccc2[nH]nc(-c3ccc(OC4CCN(C5COC5)CC4)cc3)c2c1)c1ccccc1Cl [Example A511, (S)-N-(1-(2-chlorophenyl)-3-methylbutyl)-3-(4-((1-(oxetan-3-yl)piperidin-4-yl)oxy)phenyl)-1H-indazole-5-carboxamide] | < 100 nM | 100 to 500 nM | < 100 nM | 100 to 500 nM | – | –
CCC(CC)(CNC(=O)c1ccc2[nH]nc(-c3ccc(N4CCOCC4)cc3)c2c1)N1CCOCC1 [Example A463, N-(2-ethyl-2-morpholinobutyl)-3-(4-morpholinophenyl)-1H-indazole-5-carboxamide] | < 100 nM | 100 to 500 nM | < 100 nM | 100 to 500 nM | – | –
CN1CCC(CO)(Cc2ccc(-c3n[nH]c4ccc(C(=O)NCC5(N6CCOCC6)CCCCC5)cc34)cc2)CC1 [Example A486, 3-(4-((4-(hydroxylmethyl)-1-methylpiperidin-4-yl)methyl)phenyl)-N-((1-morpholinocyclohexyl)methyl)-1H-indazole-5-carboxamide] | 100 to 500 nM | > 500 nM | < 100 nM | 100 to 500 nM | – | –
O=C(N[C@H](c1ccccn1)C1CC1)c1cc2c(-c3ccc(N4C5CCC4CC(O)C5)cc3)n[nH]c2cc1F (stereo partly drawn) [Example A271, N-((S)-cyclopropyl(pyridin-2-yl)methyl)-6-fluoro-3-(4-((1R,3R,5S)-3-hydroxy-8-azabicyclo[3.2.1]octan-8-yl)phenyl)-1H-indazole-5-carboxamide] | 100 to 500 nM | > 500 nM | < 100 nM | > 500 nM | – | –
CN1[C@@H]2CC[C@H]1C[C@@H](Oc1ccc(-c3n[nH]c4ccc(C(=O)NCC5(OC6CCCC6)CCCCC5)cc34)cc1)C2 [Example A438] | 100 to 500 nM | > 500 nM | < 100 nM | 100 to 500 nM | – | –
CN1CCN(C2(CNC(=O)c3ccc4[nH]nc(-c5ccc(N6CCOCC6)cc5)c4c3)CCCC2)CC1 [Example A467, N-((1-(4-methylpiperazin-1-yl)cyclopentyl)methyl)-3-(4-morpholinophenyl)-1H-indazole-5-carboxamide] | > 500 nM | > 500 nM | 100 to 500 nM | > 500 nM | – | –
CC(C)C[C@H](NC(=O)c1ccc2[nH]nc(-c3ccc(N4CC(N5CCOCC5)C4)cc3)c2c1)c1ccccc1F [Example A276, (S)-N-(1-(2-fluorophenyl)-3-methylbutyl)-3-(4-(3-morpholinoazetidin-1-yl)phenyl)-1H-indazole-5-carboxamide] | < 100 nM | 100 to 500 nM | < 100 nM | < 100 nM | – | –
O=C(N[C@H](c1ccccn1)C1CCCC1)c1ccc2[nH]nc(-c3ccc(OC4CCN(C[C@@H](O)C(F)(F)F)CC4)cc3)c2c1 [Example A229, N((S)-cyclopentyl(pyridin-2-yl)methyl)-3-(4-((1-((R)-3,3,3-trifluoro-2-hydroxypropyl)piperidin-4-yl)oxy)phenyl)-1H-indazole-5-carboxamide] | 100 to 500 nM | 100 to 500 nM | < 100 nM | 100 to 500 nM | – | –
CC(C)[C@H](NC(=O)c1ccc2[nH]nc(-c3ccc(OC4CC5CCC(C4)N5C=O)nc3)c2c1)c1ccccc1Cl (stereo partly drawn) [Example A354, N-((S)-1-(2-chlorophenyl)-2-methylpropyl)-3-(6-(((1R,3R,5S)-8-formyl-8-azabicyclo[3.2.1]octan-3-yl)oxy)pyridin-3-yl)-1H-indazole-5-carboxamide] | 100 to 500 nM | 100 to 500 nM | < 100 nM | 100 to 500 nM | – | –
O=C(N[C@@H](c1ccccn1)C1CC1)c1ccc2[nH]nc(-c3ccc(N4C5CCC4CC(O)C5)cc3)c2c1 (stereo partly shown) [Example A512] | – | 100 to 500 nM | < 100 nM | – | < 100 nM | < 100 nM
